System: rat liver microsomes
Test: Inhibition of ferrous ion-stimulated formation of maliondialdehyde (lipid peroxidation) in rat liver microsomes
Assay type: biochemical
Details: ferrous sulfate 1 mM, 37° C. for 1 hour, test compound in DMSO, read-out: IC50, inhibition of production of MDA (as measured by the MDA-TBA adduct)
Experimental: The in vitro antioxidant activity of Compound MH-1 was evaluated by measuring its inhibitory effect on the ferrous ion-stimulated formation of maliondialdehyde (“MDA”), an end product of lipid peroxidation, in rat liver microsomes. The antioxidant activity of Compound MH-1 was compared with the in vitro antioxidant activity of α-tocopherol, a known antioxidant. A modified procedure originally described in Bernheim et al., “The Reaction Between Thiobarbituric Acid and the Oxidation Products of Certain Lipids,” J. Biol. Chem., 174:257-264 (1948) and Wills, “Lipid Peroxide Formation in Microsomes,” Biochem. J., 113:325-332 (1969), which are hereby incorporated by reference, was used to carry out the assay.
Freshly harvested rat livers (100 mg/ml) were homogenized in Tris-KCl buffer (0.05M, pH 7.4). The microsomal fraction was isolated by differential centrifugation (40,000 rpm; 106,000 g) and resuspended in Tris-KCl (100 mg/ml, initial concentration). The microsomal suspension was incubated with or without the test compound (Compound MH-1 in DMSO, 0.0-0.5mM or α-tocopherol in dimethylsulfoxide, 0.0-0.6 mM) at 37° C. for 3 minutes. […] Maliondialdeyde-TBA adduct concentrations in the butanol extract were measured by fluorescence spectroscopy (emission 553 nm, excitation 532 nm). […]

SMILES	IC50
Cc1c(C)c2c(c(C)c1O)CC[C@@](C)(CCC[C@H](C)CCC[C@H](C)CCCC(C)C)O2 [α-tocopherol]	307 µM
Cc1c(C)c2c(c(C)c1OC(=O)CCCC[C@@H]1CCSS1)CC[C@@](C)(CC[C@H](C)CCC[C@H](C)CCCC(C)C)O2 [Compound MH-1]	266 µM

From patent US20030187059A1, “Methods and compounds useful in inhibiting oxidative and/or free radical damage and in the treatment and prevention of disease” (priority 2002, published 2003)
